Measurements from patent publication US20160106439A1, “PNEUMATIC TOURNIQUET” (BIONUMERIK PHARMACEUTICALS, INC., priority 2013, published 2016).

Tests used:
Assay type in all cases: binding
[1] = target: T1, Recombinant human peroxiredoxin 1 (Homo sapiens, UniProt Q06830); assay: Tavocept-derived mesna adducts on Prx 1 (digest, LC-MS)
T1 construct: purchased SigmaAldrich
T1 sequence (Q06830 1-199): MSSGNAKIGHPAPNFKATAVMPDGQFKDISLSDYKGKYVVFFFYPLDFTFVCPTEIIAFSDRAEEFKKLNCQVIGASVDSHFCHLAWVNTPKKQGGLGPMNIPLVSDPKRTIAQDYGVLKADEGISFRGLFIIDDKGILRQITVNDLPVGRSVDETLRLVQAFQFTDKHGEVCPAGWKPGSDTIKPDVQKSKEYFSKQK
Procedure: Recombinant human peroxiredoxin 1 (purchased from SigmaAldrich; 333 μg; 0.015 micromoles) was reduced using an excess of dithiothreitol (DTT; 35 micromoles) in NH4HCO3 buffer (40 mM, pH 8.0) at 37° C. for 50 minutes (total reaction volume was 750 μL; final Prx concentration was 20 μM; and final DTT concentration was 46 mM). […] (total reaction volume was 500 μL). After 16-18 hours incubation, each reaction was removed and chromatographed using G25 Sephadex columns.
In brief, the G25 chromatographed Prx1 incubation reactions were digested with Trypsin Gold. Trypsin Gold was dissolved in 400 μL of NH4HCO3 and 100 μL of acetonitrile. A 100-150 μL volume of this Trypsin Gold stock was then added to 500 μL of the aforementioned final sample with 75 μL of acetonitrile and then the reaction volume was adjusted to a total of 750 μL with NH4HCO3. The sample was incubated for 6 hours at 37° C. Chymotrypsin digests were by dissolving chymotrypsin in 1M HCL. A 50 μL volume of this chymotrypsin stock solution was added to added to 500 μL of the aforementioned final sample along with 10% (v/v) of CaCl2 (100 mM stock). NH4HCO3 buffer was then added to bring the total reaction volume to 750 μL. Chymotrypsin digests were incubated for 16 hours at 30° C. Following digest by either trypsin or chymotrypsin, reactions were lyophilized to dryness overnight and then resuspended in a minimal amount of HPLC grade water prior to LC MS analyses.
A Symmetry C18 HPLC column (Waters, Franklin, Mass.; 3.5 μm; 4.6×75 mm) and a Waters Alliance liquid chromatography system (Waters 2695; Franklin, Mass.) coupled to a Micromass single quadropole mass detector (Micromass ZMD; Manchester, UK) were used to analyze fragments from trypsin or chymotrypsin digested human Prx1. The mobile phase contained 0.1% of formic acid throughout the run and the flow rate was 0.35 ml/min. […]

Recombinant human Trx = target: T2, Recombinant human Trx (Homo sapiens, UniProt P10599); assay: LC MS of Trypsin digested Trx after incubation with Tavocept, mesna or glutathione; set-up: purchased Sigma (SigmaAldrich); host or cells: E. coli; settings: 10 mM, 4 to 6 hours
T2 sequence (P10599 1-105): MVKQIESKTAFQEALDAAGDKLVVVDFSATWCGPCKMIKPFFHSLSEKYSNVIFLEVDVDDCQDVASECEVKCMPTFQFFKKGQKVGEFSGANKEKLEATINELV

thioredoxin = target: T3, thioredoxin (Homo sapiens, UniProt P10599); assay: LC-MS of thioredoxin incubations; settings: ion at m/z 1288.3
T3 construct: purchased Sigma (SigmaAldrich); host or cells: E. coli

Human Grx = target: T4, Human Grx (Homo sapiens, UniProt P35754); assay: MS and crystal structure of Grx with Tavocept-derived mesna adducts
T4 construct: 6xHis (TEV-cleavable) (N, cleaved yes); made in house; host or cells: E. coli BL21 (RIPL)

RNR subunit 1 = RNR subunit 1 (Homo sapiens, UniProt P23921); assay: Whole protein MS of RNR subunit 1; settings: whole protein Mass Spectroscopy
Text: RNR1 contains a total of sixteen (16) cysteine residues and at least five (5) of these cysteine residues are required for catalysis, including: Cys218, Cys429, Cys444, Cys787, and Cys790. It is hypothesized that the Tavocept-derived mesna adducts identified on the RNR1 protein using whole protein Mass Spectroscopy (see, FIG. 49) may alter or modulate RNR activity.

T4 sequence (P35754 whole entry): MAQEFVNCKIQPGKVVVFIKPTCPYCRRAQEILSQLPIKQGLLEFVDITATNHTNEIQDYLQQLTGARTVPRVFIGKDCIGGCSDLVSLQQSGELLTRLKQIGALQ
RNR subunit 1, sequence (P23921 whole entry): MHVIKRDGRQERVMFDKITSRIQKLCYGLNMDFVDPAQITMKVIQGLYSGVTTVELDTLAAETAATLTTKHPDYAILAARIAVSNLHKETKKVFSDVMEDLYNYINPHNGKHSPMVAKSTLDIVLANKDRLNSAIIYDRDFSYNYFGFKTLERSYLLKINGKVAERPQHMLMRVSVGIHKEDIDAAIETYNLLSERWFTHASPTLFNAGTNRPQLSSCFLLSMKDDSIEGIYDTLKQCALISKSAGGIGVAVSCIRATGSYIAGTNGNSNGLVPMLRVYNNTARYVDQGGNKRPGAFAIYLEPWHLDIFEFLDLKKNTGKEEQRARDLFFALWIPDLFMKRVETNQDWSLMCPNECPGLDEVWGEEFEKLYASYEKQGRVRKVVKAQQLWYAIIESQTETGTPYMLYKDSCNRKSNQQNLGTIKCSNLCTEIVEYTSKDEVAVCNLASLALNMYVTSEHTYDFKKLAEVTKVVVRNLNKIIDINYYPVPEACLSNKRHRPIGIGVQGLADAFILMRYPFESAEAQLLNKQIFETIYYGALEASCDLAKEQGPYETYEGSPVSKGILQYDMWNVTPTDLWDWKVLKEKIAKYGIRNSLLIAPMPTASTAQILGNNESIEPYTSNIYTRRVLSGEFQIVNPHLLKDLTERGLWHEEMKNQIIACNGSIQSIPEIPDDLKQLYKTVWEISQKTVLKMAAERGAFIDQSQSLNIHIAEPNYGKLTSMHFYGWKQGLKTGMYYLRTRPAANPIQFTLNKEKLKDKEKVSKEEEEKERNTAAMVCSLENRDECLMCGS

For `O=S(=O)([O-])CCSSCCS(=O)(=O)[O-].[Na+].[Na+]` [Tavocept, disodium 2,2′-dithio-bis-ethane sulfonate], the “Tavocept-derived mesna Adduct detected?” value ([1]; chymotryptic fragment TDKHGEVCPAGW (Cys 173) of human Prx 1) was “Yes”, the “Tavocept-derived mesna Adduct detected?” value ([1]; chymotryptic fragment VCPTEIIAF (Cys 52) of human Prx 1) was “Yes” and the “Tavocept-derived mesna Adduct detected?” value ([1]; tryptic fragment HGEVCPAGWK (Cys 173) of human Prx 1) was “Yes”. For the same molecule, the “Mesna-Cysteine Adduct Detected?” value (Recombinant human Trx; fragment CMPTFQFFK (cys73)) was “Yes”, the “Mesna-Cysteine Adduct Detected?” value (Recombinant human Trx; fragment LVVVDFSATWCGPCK (active site cys32 and cys35)) was “No” and the “Mesna-Cysteine Adduct Detected?” value (Recombinant human Trx; fragment YSNVIFLEVDVDDCQDVASECEVK (cys62 and cys69)) was “Yes”. The “mesna adduct on thioredoxin fragment CMPTFQFFK” value (thioredoxin) was “Cys73-mesna adduct”, the “number of Tavocept-derived mesna adducts on Human Grx” value (Human Grx; Mass Spectrum) was “two” and the “Grx cysteines with Tavocept-derived mesna adduct” value (Human Grx; atomic resolution map) was “Cys7 (Panel A) and Cys82”. For the same molecule, the “number of Tavocept-derived mesna adducts on RNR1 cysteine residues” value (RNR subunit 1) was at most 8.
